Reference: patent US12162888B2, “Carboxamides as ubiquitin-specific protease inhibitors” (Valo Early Discovery, Inc., priority 2018, dated 2024)

These compounds were tested against T1, USP25 (USP25-His6, Boston Biochem E-546) (Homo sapiens, UniProt Q9UHP3) (assay: Ubiquitin-Rhodamine 110 Assay for USP25 Activity, Example A-3). Settings: Ubiquitin-Rhodamine 110 assay, Example A-3; IC50 ranges; read-out: USP25 A-3 IC50.
T1 construct: His6 (C); purchased Boston Biochem E-546
T1 sequence (Q9UHP3 1-1055): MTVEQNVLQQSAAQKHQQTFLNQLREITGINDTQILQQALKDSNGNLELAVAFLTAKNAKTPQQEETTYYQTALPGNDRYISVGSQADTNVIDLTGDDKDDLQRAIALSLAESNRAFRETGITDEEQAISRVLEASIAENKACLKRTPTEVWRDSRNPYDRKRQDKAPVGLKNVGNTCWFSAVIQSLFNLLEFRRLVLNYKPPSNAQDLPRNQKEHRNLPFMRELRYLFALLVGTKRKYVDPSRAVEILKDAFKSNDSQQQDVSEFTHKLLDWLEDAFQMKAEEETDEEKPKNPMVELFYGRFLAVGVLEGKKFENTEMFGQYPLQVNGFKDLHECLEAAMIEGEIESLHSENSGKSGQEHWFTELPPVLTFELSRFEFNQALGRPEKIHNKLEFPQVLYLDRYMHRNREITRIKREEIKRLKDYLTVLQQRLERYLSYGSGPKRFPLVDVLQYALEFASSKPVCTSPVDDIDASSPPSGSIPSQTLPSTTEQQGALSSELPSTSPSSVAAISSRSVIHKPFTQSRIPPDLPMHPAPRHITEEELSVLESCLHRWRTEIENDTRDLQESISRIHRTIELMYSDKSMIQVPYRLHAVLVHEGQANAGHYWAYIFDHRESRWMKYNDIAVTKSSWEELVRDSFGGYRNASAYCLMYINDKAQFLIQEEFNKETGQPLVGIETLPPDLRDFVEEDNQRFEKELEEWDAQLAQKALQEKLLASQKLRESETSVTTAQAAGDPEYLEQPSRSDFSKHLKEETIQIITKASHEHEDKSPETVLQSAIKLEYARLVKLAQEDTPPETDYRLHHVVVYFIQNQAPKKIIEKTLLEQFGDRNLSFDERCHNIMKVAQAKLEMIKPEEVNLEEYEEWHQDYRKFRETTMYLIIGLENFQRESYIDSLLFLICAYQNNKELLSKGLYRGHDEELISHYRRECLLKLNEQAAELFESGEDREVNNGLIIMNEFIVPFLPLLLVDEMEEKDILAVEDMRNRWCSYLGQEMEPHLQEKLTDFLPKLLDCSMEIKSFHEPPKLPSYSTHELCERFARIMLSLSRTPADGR
Format: biochemical
Protocol: Example A-3: Biochemical Assay: Ubiquitin-Rhodamine 110 Assay for USP25 Activity
The assay was performed in a final volume of 9 μL in assay buffer containing 20 mM Tris-HCl (pH 8.0, (1M Tris-HCl, pH 8.0 solution; Corning 46-031-CM)), 3 mM BME (2-Mercaptoethanol; Sigma 63689-25ML-F), 0.03% BGG (0.22 μM filtered, Sigma, G7516-25G), and 0.01% Triton X-100 (Sigma, T9284-10L). Nanoliter quantities of 10-point, 3-fold serial dilution in DMSO was pre-dispensed into 1536 assay plates (Corning, #3724BC) for a final test concentration of 25 μM to 1.3 nM, top to lowest dose, respectively. Enzyme USP25, construct USP25-His6, (Boston Biochem E-546). Concentration and incubation times were optimized for the maximal signal-to-background while maintaining initial velocity conditions at a fixed substrate concentration. The final concentration of the enzyme in the assay was […]. Final substrate (Ub-Rh110; Ubiquitin-Rhodamine 110, R&D Systems #U-555) concentration was 25 nM with [Ub-Rh110]<<Km. 3 μL of 2× enzyme was added to assay plates (pre-stamped with compound) preincubated with […] for 30 minutes and then 3 μL of 2× Ub-Rh110 was added to assay plates. Plates were incubated for 45 minutes at room temperature before addition of 3 μL of stop solution (final concentration of 10 mM citric acid (Sigma, 251275-500G)). Fluorescence was read on the Envision (Excitation at 485 nm and Emission at 535 nm; Perkin Elmer) or on the PheraSTAR (Excitation at 485 nm and Emission at 535 nm; BMG Labtech).
For assay formats Example A-1(a), A-1(b), and A-2, data were reported as percent inhibition compared with control wells based on the following equation: % inh=1−((FLU−AveLow)/(AveHigh−AveLow)) where FLU=measured Fluorescence, AveLow=average Fluorescence of no enzyme control (n=16), and AveHighh=average Fluorescence of DMSO control (n=16). IC50 values were determined by curve fitting of the standard 4 parameter logistic fitting algorithm included in the Activity Base software package: IDBS XE Designer Model 205. Data is fitted using the Levenburg Marquardt algorithm.
Work on `Cc1ccc2c(N)c(C(=O)N[C@H]3COc4cc(N5CC[C@@H]6CCC(N)C[C@@H]65)ccc4C3)sc2n1` (stereo in doubt) [Example 234, N-[(3R)-7-[(3aS,6S,7aS)-6-amino-octahydro-1H-indol-1-yl]-3,4-dihydro-2H-1-benzopyran-3-yl]-3-amino-6-methylthieno[2,3-b]pyridine-2-carboxamide] yielded an IC50 of 0.05 to 0.2 µM.

Same assay, conditions: Ubiquitin-Rhodamine 110 assay, Example A-3; read-out: USP25 A-3 IC50 range
Compound `Cc1ccc2c(N)c(C(=O)N[C@H]3CCc4nc(N5C[C@@H](N)[C@H](C(F)F)C5)ncc4C3)sc2n1` [Example 381, 3-amino-N-[(6S)-2-[(3S,4R)-3-amino-4-(difluoromethyl)pyrrolidin-1-yl]-5,6,7,8-tetrahydroquinazolin-6-yl]-6-methylthieno[2,3-b]pyridine-2-carboxamide] has an IC50 of over 2 µM. `Cc1ccc2c(N)c(C(=O)N[C@H]3CCc4nc(N5C[C@H]6COC[C@@]6(N)C5)ccc4C3)sc2n1` [Example 395, N-[(6S)-2-[(3aS,6aR)-3a-amino-hexahydro-1H-furo[3,4-c]pyrrol-5-yl]-5,6,7,8-tetrahydroquinolin-6-yl]-3-amino-6-methylthieno[2,3-b]pyridine-2-carboxamide] showed an IC50 of 0.2 to 2 µM. `Cc1ccc2c(N)c(C(=O)N[C@H]3CCc4nc(N5CC[C@@](N)(CO)C5)ccc4C3)sc2n1` [Example 387, 3-amino-N-[(6S)-2-[(3S)-3-amino-3-(hydroxymethyl)pyrrolidin-1-yl]-5,6,7,8-tetrahydroquinolin-6-yl]-6-methylthieno[2,3-b]pyridine-2-carboxamide] showed an IC50 of over 2 µM. `Cc1ccc2c(N)c(C(=O)N[C@@H]3COc4cc(N5C[C@@H]6CNC[C@H]6C5)ccc4C3)sc2n1` [Example 42, 3-amino-N-((S)-7-((3aS,6aS)-hexahydropyrrolo[3,4-c]pyrrol-2(1H)-yl)chroman-3-yl)-6-methylthieno[2,3-b]pyridine-2-carboxamide] gave an IC50 of 0.2 to 2 µM. `COC[C@@H]1CN(c2ccc3c(n2)OC[C@H](NC(=O)c2sc4nc(C)cc(C)c4c2N)C3)C[C@@H]1N` [Example 348, 3-amino-N-[(3R)-7-[(3R,4R)-3-amino-4-(methoxymethyl)pyrrolidin-1-yl]-2H,3H,4H-pyrano[2,3-b]pyridin-3-yl]-4,6-dimethylthieno[2,3-b]pyridine-2-carboxamide] gave an IC50 of over 2 µM. `Cc1ccc2c(N)c(C(=O)N[C@H]3COc4cc(N5CC6CCC(C5)N6)c(F)cc4C3)sc2n1` [Example 104, 3-amino-N-[(3R)-7-{3,8-diazabicyclo[3.2.1]octan-3-yl}-6-fluoro-3,4-dihydro-2H-1-benzopyran-3-yl]-6-methylthieno[2,3-b]pyridine-2-carboxamide] gave an IC50 of 0.05 to 0.2 µM. `CO[C@]1(C)CN(c2ccc3c(n2)CC[C@H](NC(=O)c2sc4nc(C)ccc4c2N)C3)C[C@@H]1N` [Example 427, 3-amino-N-[(6S)-2-[(3R,4S)-4-amino-3-methoxy-3-methylpyrrolidin-1-yl]-5,6,7,8-tetrahydroquinolin-6-yl]-6-methylthieno[2,3-b]pyridine-2-carboxamide] was tested, and the IC50 was 0.2 to 2 µM. Work on `Cc1ccc2c(N)c(C(=O)N[C@H]3CCc4nc(N5C6CC(N)CC5CS(=O)(=O)C6)ccc4C3)sc2n1` (stereo partly drawn) [Example 429, 3-amino-N-[(6S)-2-{7-amino-3,3-dioxo-3λ-thia-9-azabicyclo[3.3.1]nonan-9-yl}-5,6,7,8-tetrahydroquinolin-6-yl]-6-methylthieno[2,3-b]pyridine-2-carboxamide] yielded an IC50 of 0.05 to 0.2 µM. `Cc1ccc2c(N)c(C(=O)N[C@H]3CCc4nc(N5CCN[C@@H](C(F)F)C5)ccc4C3)sc2n1` [Example 375, 3-amino-N-[(6S)-2-[(3R)-3-(difluoromethyl)piperazin-1-yl]-5,6,7,8-tetrahydroquinolin-6-yl]-6-methylthieno[2,3-b]pyridine-2-carboxamide] gave an IC50 of over 2 µM. For `COC[C@@]1(N)CCN(c2ccc3c(n2)CC[C@H](NC(=O)c2sc4nc(C)ccc4c2N)C3)C1` [Example 388, 3-amino-N-[(6S)-2-[(3R)-3-amino-3-(methoxymethyl)pyrrolidin-1-yl]-5,6,7,8-tetrahydroquinolin-6-yl]-6-methylthieno[2,3-b]pyridine-2-carboxamide], the IC50 was 0.2 to 2 µM. `COC[C@H]1[C@H](N)CCN1c1ccc2c(n1)CC[C@H](NC(=O)c1sc3nc(C)ccc3c1N)C2` [Example 419, 3-amino-N-[(6S)-2-[(2R,3R)-3-amino-2-(methoxymethyl)pyrrolidin-1-yl]-5,6,7,8-tetrahydroquinolin-6-yl]-6-methylthieno[2,3-b]pyridine-2-carboxamide] gave an IC50 of over 2 µM. `Cc1ccc2c(N)c(C(=O)N[C@H]3CCc4nc(N5C[C@H](C(F)F)[C@@H](N)C5)ncc4C3)sc2n1` [Example 380, 3-amino-N-[(6S)-2-[(3R,4S)-3-amino-4-(difluoromethyl)pyrrolidin-1-yl]-5,6,7,8-tetrahydroquinazolin-6-yl]-6-methylthieno[2,3-b]pyridine-2-carboxamide] gave an IC50 of over 2 µM. For `Cc1ccc2c(N)c(C(=O)N[C@@H]3CCc4nc(N5C[C@H](C(F)F)[C@@H](N)C5)ncc4C3)sc2n1` [Example 383, 3-amino-N-[(6R)-2-[(3R,4S)-3-amino-4-(difluoromethyl)pyrrolidin-1-yl]-5,6,7,8-tetrahydroquinazolin-6-yl]-6-methylthieno[2,3-b]pyridine-2-carboxamide], the IC50 was over 2 µM. `CO[C@@]1(C)CN(c2ccc3c(n2)CC[C@H](NC(=O)c2sc4nc(C)ccc4c2N)C3)C[C@H]1N` [Example 428, 3-amino-N-[(6S)-2-[(3S,4R)-4-amino-3-methoxy-3-methylpyrrolidin-1-yl]-5,6,7,8-tetrahydroquinolin-6-yl]-6-methylthieno[2,3-b]pyridine-2-carboxamide] was tested, and the IC50 was 0.2 to 2 µM. `Cc1ccc2c(N)c(C(=O)N[C@H]3CCc4nc(N5C[C@H](N)[C@]6(CCOC6)C5)ccc4C3)sc2n1` [Example 430, 3-amino-N-[(6S)-2-[(5S,9R)-9-amino-2-oxa-7-azaspiro[4.4]nonan-7-yl]-5,6,7,8-tetrahydroquinolin-6-yl]-6-methylthieno[2,3-b]pyridine-2-carboxamide] showed an IC50 of over 2 µM. In the case of `COC[C@]1(N)CCN(c2ccc3c(n2)CC[C@H](NC(=O)c2sc4nc(C)ccc4c2N)C3)C1` [Example 389, 3-amino-N-[(6S)-2-[(3S)-3-amino-3-(methoxymethyl)pyrrolidin-1-yl]-5,6,7,8-tetrahydroquinolin-6-yl]-6-methylthieno[2,3-b]pyridine-2-carboxamide], the IC50 is reported as 0.2 to 2 µM. For `Cc1ccc2c(N)c(C(=O)N[C@H]3CCc4nc(N5C[C@@H](CF)[C@H](N)C5)ccc4C3)sc2n1` [Example 385, 3-amino-N-[(6S)-2-[(3S,4R)-3-amino-4-(fluoromethyl)pyrrolidin-1-yl]-5,6,7,8-tetrahydroquinolin-6-yl]-6-methylthieno[2,3-b]pyridine-2-carboxamide], the IC50 was over 2 µM.
